Measurements published in ChEMBL document CHEMBL4011590, “Structure-activity relationship studies on 3,5-dinitrophenyl tetrazoles as antitubercular agents” (Eur J Med Chem, 2017).
Values after ≈ are worked out from the molar mass of the structure shown.

Experiments:
Format in all cases: functional
[1] = system: Mycobacterium tuberculosis; test: Antimycobacterial activity against clinical isolates of multidrug resistant/extensively drug resistant Mycobacterium tuberculosis Praha 1 after 21 days by micromethod; conditions: Praha 1, 504 h
[2] = system: Mycobacterium tuberculosis; test: Antimycobacterial activity against clinical isolates of multidrug resistant/extensively drug resistant Mycobacterium tuberculosis Praha 1 after 14 days by micromethod; conditions: Praha 1, 336 h
[3] = system: Mycobacterium tuberculosis; test: Antimycobacterial activity against clinical isolates of multidrug resistant/extensively drug resistant Mycobacterium tuberculosis 8666/2010 after 21 days by micromethod; conditions: 8666/2010, 504 h
[4] = system: Mycobacterium tuberculosis; test: Antimycobacterial activity against clinical isolates of multidrug resistant/extensively drug resistant Mycobacterium tuberculosis 7357/1998 after 14 days by micromethod; conditions: 7357/1998, 336 h
[5] = system: Mycobacterium tuberculosis; test: Antimycobacterial activity against clinical isolates of multidrug resistant/extensively drug resistant Mycobacterium tuberculosis 234/2005 after 21 days by micromethod; conditions: 234/2005, 504 h
[6] = system: Mycobacterium tuberculosis; test: Antimycobacterial activity against clinical isolates of multidrug resistant/extensively drug resistant Mycobacterium tuberculosis Praha 131 after 14 days by micromethod; conditions: Praha 131, 336 h
[7] = system: Mycobacterium tuberculosis; test: Antimycobacterial activity against clinical isolates of multidrug resistant/extensively drug resistant Mycobacterium tuberculosis Praha 4 after 14 days by micromethod; conditions: Praha 4, 336 h
[8] = system: Mycobacterium tuberculosis; test: Antimycobacterial activity against clinical isolates of multidrug resistant/extensively drug resistant Mycobacterium tuberculosis Praha 131 after 21 days by micromethod; conditions: Praha 131, 504 h
[9] = system: Mycobacterium tuberculosis; test: Antimycobacterial activity against clinical isolates of multidrug resistant/extensively drug resistant Mycobacterium tuberculosis 9449/2007 after 21 days by micromethod; conditions: 9449/2007, 504 h
[10] = system: Mycobacterium tuberculosis; test: Antimycobacterial activity against clinical isolates of multidrug resistant/extensively drug resistant Mycobacterium tuberculosis 9449/2007 after 14 days by micromethod; conditions: 9449/2007, 336 h
[11] = system: Mycobacterium tuberculosis; test: Antimycobacterial activity against clinical isolates of multidrug resistant/extensively drug resistant Mycobacterium tuberculosis 7357/1998 after 21 days by micromethod; conditions: 7357/1998, 504 h
[12] = system: Mycobacterium tuberculosis; test: Antimycobacterial activity against clinical isolates of multidrug resistant/extensively drug resistant Mycobacterium tuberculosis 234/2005 after 14 days by micromethod; conditions: 234/2005, 336 h
[13] = system: Mycobacterium tuberculosis; test: Antimycobacterial activity against clinical isolates of multidrug resistant/extensively drug resistant Mycobacterium tuberculosis Praha 4 after 21 days by micromethod; conditions: Praha 4, 504 h
[14] = system: Mycobacterium tuberculosis; test: Antimycobacterial activity against clinical isolates of multidrug resistant/extensively drug resistant Mycobacterium tuberculosis 8666/2010 after 14 days by micromethod; conditions: 8666/2010, 336 h

Compound | MIC [1] [µM] | MIC [2] [µM] | MIC [3] [µM] | MIC [4] [µM] | MIC [5] [µM] | MIC [6] [µM] | MIC [7] [µM] | MIC [8] [µM] | MIC [9] [µM] | MIC [10] [µM] | MIC [11] [µM] | MIC [12] [µM] | MIC [13] [µM] | MIC [14] [µM]
O=[N+]([O-])c1cc(-c2nnn(Cc3cccc(F)c3)n2)cc([N+](=O)[O-])c1 | 1 (≈ 0.344 µg/mL) | 1 (≈ 0.344 µg/mL) | 1 (≈ 0.344 µg/mL) | 1 (≈ 0.344 µg/mL) | 1 (≈ 0.344 µg/mL) | 1 (≈ 0.344 µg/mL) | 1 (≈ 0.344 µg/mL) | 1 (≈ 0.344 µg/mL) | 1 (≈ 0.344 µg/mL) | 1 (≈ 0.344 µg/mL) | 1 (≈ 0.344 µg/mL) | 1 (≈ 0.344 µg/mL) | 1 (≈ 0.344 µg/mL) | 1 (≈ 0.344 µg/mL)
Cc1ccc(Cn2nnc(-c3cc([N+](=O)[O-])cc([N+](=O)[O-])c3)n2)cc1 | 0.25 (≈ 0.0851 µg/mL) | 0.12 (≈ 0.0408 µg/mL) | 0.12 (≈ 0.0408 µg/mL) | 0.12 (≈ 0.0408 µg/mL) | 0.12 (≈ 0.0408 µg/mL) | 0.12 (≈ 0.0408 µg/mL) | 0.12 (≈ 0.0408 µg/mL) | 0.12 (≈ 0.0408 µg/mL) | 0.12 (≈ 0.0408 µg/mL) | 0.12 (≈ 0.0408 µg/mL) | 0.12 (≈ 0.0408 µg/mL) | 0.12 (≈ 0.0408 µg/mL) | 0.12 (≈ 0.0408 µg/mL) | 0.12 (≈ 0.0408 µg/mL)
O=[N+]([O-])c1cc(-c2nnn(CSc3nnnn3-c3ccc(Cl)c(Cl)c3)n2)cc([N+](=O)[O-])c1 | 0.03 (≈ 0.0149 µg/mL) | 0.03 (≈ 0.0149 µg/mL) |  | 0.03 (≈ 0.0149 µg/mL) | 0.03 (≈ 0.0149 µg/mL) | 0.03 (≈ 0.0149 µg/mL) | 0.03 (≈ 0.0149 µg/mL) | 0.03 (≈ 0.0149 µg/mL) | 0.03 (≈ 0.0149 µg/mL) | 0.03 (≈ 0.0149 µg/mL) | 0.03 (≈ 0.0149 µg/mL) | 0.03 (≈ 0.0149 µg/mL) | 0.03 (≈ 0.0149 µg/mL) | 
O=[N+]([O-])c1cc(-c2nnn(CSc3nnnn3-c3ccc(Cl)cc3)n2)cc([N+](=O)[O-])c1 | 0.06 (≈ 0.0276 µg/mL) | 0.03 (≈ 0.0138 µg/mL) |  | 0.03 (≈ 0.0138 µg/mL) | 0.06 (≈ 0.0276 µg/mL) | 0.03 (≈ 0.0138 µg/mL) | 0.03 (≈ 0.0138 µg/mL) | 0.03 (≈ 0.0138 µg/mL) | 0.03 (≈ 0.0138 µg/mL) | 0.03 (≈ 0.0138 µg/mL) | 0.03 (≈ 0.0138 µg/mL) | 0.03 (≈ 0.0138 µg/mL) | 0.03 (≈ 0.0138 µg/mL) | 
O=[N+]([O-])c1cc(-c2nnn(CCCCSc3nnnn3-c3ccc(Br)cc3)n2)cc([N+](=O)[O-])c1 | 0.25 (≈ 0.137 µg/mL) | 0.25 (≈ 0.137 µg/mL) |  | 0.25 (≈ 0.137 µg/mL) | 0.25 (≈ 0.137 µg/mL) | 0.25 (≈ 0.137 µg/mL) | 0.25 (≈ 0.137 µg/mL) | 0.25 (≈ 0.137 µg/mL) | 0.5 (≈ 0.274 µg/mL) | 0.25 (≈ 0.137 µg/mL) | 0.25 (≈ 0.137 µg/mL) | 0.25 (≈ 0.137 µg/mL) | 0.25 (≈ 0.137 µg/mL) | 
O=[N+]([O-])c1cc(-c2nnn(Cc3ccccc3)n2)cc([N+](=O)[O-])c1 | 1 (≈ 0.326 µg/mL) | 1 (≈ 0.326 µg/mL) |  | 1 (≈ 0.326 µg/mL) | 1 (≈ 0.326 µg/mL) | 1 (≈ 0.326 µg/mL) | 1 (≈ 0.326 µg/mL) | 1 (≈ 0.326 µg/mL) | 1 (≈ 0.326 µg/mL) | 1 (≈ 0.326 µg/mL) | 1 (≈ 0.326 µg/mL) | 1 (≈ 0.326 µg/mL) | 1 (≈ 0.326 µg/mL) | 
COc1ccc(Cn2nnc(-c3cc([N+](=O)[O-])cc([N+](=O)[O-])c3)n2)cc1 | 0.03 (≈ 0.0107 µg/mL) | 0.03 (≈ 0.0107 µg/mL) | 0.03 (≈ 0.0107 µg/mL) | 0.03 (≈ 0.0107 µg/mL) | 0.06 (≈ 0.0214 µg/mL) | 0.03 (≈ 0.0107 µg/mL) | 0.03 (≈ 0.0107 µg/mL) | 0.03 (≈ 0.0107 µg/mL) | 0.03 (≈ 0.0107 µg/mL) | 0.03 (≈ 0.0107 µg/mL) | 0.03 (≈ 0.0107 µg/mL) | 0.03 (≈ 0.0107 µg/mL) | 0.03 (≈ 0.0107 µg/mL) | 0.03 (≈ 0.0107 µg/mL)
O=[N+]([O-])c1cc(-c2nnn(CCCSc3nnnn3-c3ccc(Br)cc3)n2)cc([N+](=O)[O-])c1 | 0.25 (≈ 0.133 µg/mL) | 0.25 (≈ 0.133 µg/mL) |  | 0.25 (≈ 0.133 µg/mL) | 0.25 (≈ 0.133 µg/mL) | 0.25 (≈ 0.133 µg/mL) | 0.25 (≈ 0.133 µg/mL) | 0.25 (≈ 0.133 µg/mL) | 0.25 (≈ 0.133 µg/mL) | 0.25 (≈ 0.133 µg/mL) | 0.25 (≈ 0.133 µg/mL) | 0.25 (≈ 0.133 µg/mL) | 0.25 (≈ 0.133 µg/mL) | 
O=[N+]([O-])c1cc(-c2nnn(Cc3ccc(F)cc3)n2)cc([N+](=O)[O-])c1 | 1 (≈ 0.344 µg/mL) | 1 (≈ 0.344 µg/mL) | 0.5 (≈ 0.172 µg/mL) | 0.5 (≈ 0.172 µg/mL) | 1 (≈ 0.344 µg/mL) | 0.5 (≈ 0.172 µg/mL) | 0.5 (≈ 0.172 µg/mL) | 1 (≈ 0.344 µg/mL) | 0.5 (≈ 0.172 µg/mL) | 0.25 (≈ 0.0861 µg/mL) | 0.5 (≈ 0.172 µg/mL) | 0.5 (≈ 0.172 µg/mL) | 1 (≈ 0.344 µg/mL) | 0.5 (≈ 0.172 µg/mL)
COc1cccc(-n2nnnc2SCn2nnc(-c3cc([N+](=O)[O-])cc([N+](=O)[O-])c3)n2)c1 | 0.03 (≈ 0.0137 µg/mL) | 0.03 (≈ 0.0137 µg/mL) |  | 0.03 (≈ 0.0137 µg/mL) | 0.03 (≈ 0.0137 µg/mL) | 0.03 (≈ 0.0137 µg/mL) | 0.03 (≈ 0.0137 µg/mL) | 0.03 (≈ 0.0137 µg/mL) | 0.06 (≈ 0.0274 µg/mL) | 0.03 (≈ 0.0137 µg/mL) | 0.03 (≈ 0.0137 µg/mL) | 0.03 (≈ 0.0137 µg/mL) | 0.03 (≈ 0.0137 µg/mL) | 
O=[N+]([O-])c1cc(-c2nnn(CSc3nnnn3-c3ccc(Br)cc3)n2)cc([N+](=O)[O-])c1 | 0.03 (≈ 0.0152 µg/mL) | 0.03 (≈ 0.0152 µg/mL) |  | 0.03 (≈ 0.0152 µg/mL) | 0.03 (≈ 0.0152 µg/mL) | 0.03 (≈ 0.0152 µg/mL) | 0.03 (≈ 0.0152 µg/mL) | 0.03 (≈ 0.0152 µg/mL) | 0.03 (≈ 0.0152 µg/mL) | 0.03 (≈ 0.0152 µg/mL) | 0.03 (≈ 0.0152 µg/mL) | 0.03 (≈ 0.0152 µg/mL) | 0.03 (≈ 0.0152 µg/mL) | 
O=[N+]([O-])c1cc(-c2nnn(Cc3cccc(Br)c3)n2)cc([N+](=O)[O-])c1 | 0.5 (≈ 0.203 µg/mL) | 0.5 (≈ 0.203 µg/mL) | 0.5 (≈ 0.203 µg/mL) | 0.5 (≈ 0.203 µg/mL) | 0.5 (≈ 0.203 µg/mL) | 0.5 (≈ 0.203 µg/mL) | 0.5 (≈ 0.203 µg/mL) | 1 (≈ 0.405 µg/mL) | 0.5 (≈ 0.203 µg/mL) | 0.25 (≈ 0.101 µg/mL) | 0.5 (≈ 0.203 µg/mL) | 0.25 (≈ 0.101 µg/mL) | 1 (≈ 0.405 µg/mL) | 0.25 (≈ 0.101 µg/mL)
